This note sets out measurements from ChEMBL document CHEMBL5653615 (J Biol Chem, 2013).

The source made the active and inactive calls. No cut-off for these calls is given here.

For assay [1], the target named is Calcium/calmodulin-dependent protein kinase type II subunit alpha (Homo sapiens) (UniProt Q9UQM7). Put plainly: Inhibition of human CAMK2a at 500 nM by HotSpot assay relative to control.
The target in assay [2] is Calcium/calmodulin-dependent protein kinase kinase 2 (Homo sapiens) (UniProt Q96RR4). In words: Inhibition of human CAMKK2 at 500 nM by HotSpot assay relative to control.
Chain of Calcium/calmodulin-dependent protein kinase kinase 2 (Homo sapiens) (Q96RR4 2-588 limits assumed): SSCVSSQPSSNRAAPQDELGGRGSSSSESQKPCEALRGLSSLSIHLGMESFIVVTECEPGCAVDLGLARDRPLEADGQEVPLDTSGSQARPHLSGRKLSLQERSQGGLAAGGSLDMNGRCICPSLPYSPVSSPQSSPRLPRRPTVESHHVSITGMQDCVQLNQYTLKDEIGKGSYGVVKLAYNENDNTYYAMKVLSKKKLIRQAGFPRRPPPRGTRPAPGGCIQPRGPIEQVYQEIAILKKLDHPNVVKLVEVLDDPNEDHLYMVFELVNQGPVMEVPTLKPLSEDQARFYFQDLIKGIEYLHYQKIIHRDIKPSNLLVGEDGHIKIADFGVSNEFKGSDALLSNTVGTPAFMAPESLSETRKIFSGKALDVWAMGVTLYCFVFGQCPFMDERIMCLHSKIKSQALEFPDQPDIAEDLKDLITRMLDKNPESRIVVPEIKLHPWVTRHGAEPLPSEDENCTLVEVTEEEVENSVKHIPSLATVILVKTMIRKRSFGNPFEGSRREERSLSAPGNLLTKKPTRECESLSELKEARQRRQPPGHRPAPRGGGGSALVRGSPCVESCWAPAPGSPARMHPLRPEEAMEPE
Assay [3] deals with CDK1/Cyclin A (Homo sapiens) (UniProt P06493+P20248). In words: Inhibition of human CDK1/cyclin A at 500 nM by HotSpot assay relative to control. In kind it is protein-complex assay.
Chain of CDK1/Cyclin A (Homo sapiens) (P06493 whole entry, looked up): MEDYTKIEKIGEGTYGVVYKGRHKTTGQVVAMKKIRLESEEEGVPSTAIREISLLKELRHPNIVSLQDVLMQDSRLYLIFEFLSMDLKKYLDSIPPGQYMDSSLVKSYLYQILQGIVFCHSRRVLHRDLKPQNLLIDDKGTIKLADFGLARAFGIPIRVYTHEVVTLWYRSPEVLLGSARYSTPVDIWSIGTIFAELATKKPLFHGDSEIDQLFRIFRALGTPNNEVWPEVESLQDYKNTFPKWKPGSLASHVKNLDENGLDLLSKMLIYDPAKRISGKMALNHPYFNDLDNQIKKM
Chain of CDK1/Cyclin A (Homo sapiens) (P20248 whole entry, looked up): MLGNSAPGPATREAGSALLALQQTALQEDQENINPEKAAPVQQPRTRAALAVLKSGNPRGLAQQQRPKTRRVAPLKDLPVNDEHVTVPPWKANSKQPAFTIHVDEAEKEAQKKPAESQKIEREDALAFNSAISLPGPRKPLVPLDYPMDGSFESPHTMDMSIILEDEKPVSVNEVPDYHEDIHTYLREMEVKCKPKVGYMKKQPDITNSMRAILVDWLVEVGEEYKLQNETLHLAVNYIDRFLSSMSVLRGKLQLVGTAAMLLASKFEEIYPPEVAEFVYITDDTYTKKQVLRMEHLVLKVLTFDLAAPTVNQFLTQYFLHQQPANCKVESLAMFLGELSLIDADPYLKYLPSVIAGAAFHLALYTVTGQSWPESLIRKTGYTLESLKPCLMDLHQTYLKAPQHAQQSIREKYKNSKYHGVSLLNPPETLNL
Assay [4] addresses Tyrosine-protein kinase Fgr (Homo sapiens) (UniProt P09769). In words: Inhibition of human FGR at 500 nM by HotSpot assay relative to control.
The target of assay [5] is T1, G protein-coupled receptor kinase 3 (Homo sapiens) (UniProt P35626).
T1 sequence (whole entry): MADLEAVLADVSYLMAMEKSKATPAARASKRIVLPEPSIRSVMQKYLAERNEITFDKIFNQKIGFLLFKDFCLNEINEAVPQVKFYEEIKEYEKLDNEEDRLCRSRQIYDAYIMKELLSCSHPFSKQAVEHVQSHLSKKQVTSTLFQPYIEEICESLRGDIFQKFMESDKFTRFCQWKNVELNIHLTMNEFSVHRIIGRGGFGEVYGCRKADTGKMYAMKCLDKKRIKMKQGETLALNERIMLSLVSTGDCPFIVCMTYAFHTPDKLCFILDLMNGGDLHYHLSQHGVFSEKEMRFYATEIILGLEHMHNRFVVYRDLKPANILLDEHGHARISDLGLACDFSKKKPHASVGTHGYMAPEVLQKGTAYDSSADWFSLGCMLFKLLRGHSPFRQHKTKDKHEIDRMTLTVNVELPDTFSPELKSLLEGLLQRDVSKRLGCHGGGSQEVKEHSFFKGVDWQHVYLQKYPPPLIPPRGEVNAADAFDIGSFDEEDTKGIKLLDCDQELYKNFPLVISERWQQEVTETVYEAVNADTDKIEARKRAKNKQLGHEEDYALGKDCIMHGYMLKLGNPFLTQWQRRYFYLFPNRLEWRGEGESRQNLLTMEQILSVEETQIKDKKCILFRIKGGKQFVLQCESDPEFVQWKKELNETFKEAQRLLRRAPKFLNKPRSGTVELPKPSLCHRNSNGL
In words: Inhibition of human GRK3 at 500 nM by HotSpot assay relative to control.

Assay [6] deals with LIM domain kinase 1 (Homo sapiens) (UniProt P53667). Put plainly: Inhibition of human LIMK1 at 500 nM by HotSpot assay relative to control.
Assay [7] addresses Serine/threonine-protein kinase MARK2 (Homo sapiens) (UniProt Q7KZI7). In words: Inhibition of human PAR-1Ba at 500 nM by HotSpot assay relative to control.
In assay [8] the target is Ribosomal protein S6 kinase alpha-5 (Homo sapiens) (UniProt O75582). Put plainly: Inhibition of human RPS6KA5 at 500 nM by HotSpot assay relative to control.
The target of assay [9] is T2, Serine/threonine-protein kinase NLK (Homo sapiens) (UniProt Q9UBE8).
T2 sequence (whole entry): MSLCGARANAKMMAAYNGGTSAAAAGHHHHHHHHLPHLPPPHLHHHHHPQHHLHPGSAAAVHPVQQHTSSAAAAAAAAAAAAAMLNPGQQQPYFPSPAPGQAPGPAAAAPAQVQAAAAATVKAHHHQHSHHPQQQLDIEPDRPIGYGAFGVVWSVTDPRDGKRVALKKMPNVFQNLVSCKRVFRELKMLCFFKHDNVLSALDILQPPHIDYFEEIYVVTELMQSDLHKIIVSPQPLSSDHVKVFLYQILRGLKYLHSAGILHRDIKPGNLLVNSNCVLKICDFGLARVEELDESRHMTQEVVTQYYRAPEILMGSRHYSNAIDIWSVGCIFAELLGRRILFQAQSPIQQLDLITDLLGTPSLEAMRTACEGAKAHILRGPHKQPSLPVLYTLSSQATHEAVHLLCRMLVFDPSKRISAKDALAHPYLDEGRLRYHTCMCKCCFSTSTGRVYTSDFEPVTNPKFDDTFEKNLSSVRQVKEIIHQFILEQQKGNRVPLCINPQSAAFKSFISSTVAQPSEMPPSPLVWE
Put plainly: Inhibition of human NLK at 500 nM by HotSpot assay relative to control.

For assay [10], the target named is T3, Mitogen-activated protein kinase 12 (Homo sapiens) (UniProt P53778).
T3 sequence (whole entry): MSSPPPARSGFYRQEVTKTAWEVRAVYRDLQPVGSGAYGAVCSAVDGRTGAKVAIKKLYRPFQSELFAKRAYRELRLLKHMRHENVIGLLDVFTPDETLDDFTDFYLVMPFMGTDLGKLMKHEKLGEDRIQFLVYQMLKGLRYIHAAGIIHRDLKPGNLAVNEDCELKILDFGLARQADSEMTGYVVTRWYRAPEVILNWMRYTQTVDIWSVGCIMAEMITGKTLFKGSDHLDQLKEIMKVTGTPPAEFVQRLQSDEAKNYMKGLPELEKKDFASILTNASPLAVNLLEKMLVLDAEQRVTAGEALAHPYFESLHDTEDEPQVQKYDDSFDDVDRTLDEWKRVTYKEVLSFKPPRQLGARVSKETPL
In words: Inhibition of human P38g at 500 nM by HotSpot assay relative to control.

Assay [11] deals with T4, Tyrosine-protein kinase TXK (Homo sapiens) (UniProt P42681).
T4 sequence (whole entry): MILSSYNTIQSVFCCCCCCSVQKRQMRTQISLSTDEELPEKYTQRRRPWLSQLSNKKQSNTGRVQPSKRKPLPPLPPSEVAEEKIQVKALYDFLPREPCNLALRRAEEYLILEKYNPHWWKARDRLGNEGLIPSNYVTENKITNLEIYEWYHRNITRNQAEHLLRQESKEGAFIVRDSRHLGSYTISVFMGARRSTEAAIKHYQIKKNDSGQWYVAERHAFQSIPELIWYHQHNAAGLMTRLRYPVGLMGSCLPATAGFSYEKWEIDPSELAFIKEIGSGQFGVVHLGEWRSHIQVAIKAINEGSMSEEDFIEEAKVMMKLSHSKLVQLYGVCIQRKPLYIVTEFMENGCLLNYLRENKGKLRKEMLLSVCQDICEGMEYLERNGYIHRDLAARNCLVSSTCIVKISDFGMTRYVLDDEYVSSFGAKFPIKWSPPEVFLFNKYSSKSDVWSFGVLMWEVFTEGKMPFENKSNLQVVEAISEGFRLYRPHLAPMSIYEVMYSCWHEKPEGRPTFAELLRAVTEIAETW
Put plainly: Inhibition of human TXK at 500 nM by HotSpot assay relative to control.

Assay [12] has as its target Insulin receptor (Homo sapiens) (UniProt P06213). Put plainly: Inhibition of wild-type human Insulin receptor activation transfected in insulin-stimulated CHO-K1 cells. In kind it is cell-based.

Chain of Serine/threonine-protein kinase MARK2 (Homo sapiens) (Q7KZI7 whole entry): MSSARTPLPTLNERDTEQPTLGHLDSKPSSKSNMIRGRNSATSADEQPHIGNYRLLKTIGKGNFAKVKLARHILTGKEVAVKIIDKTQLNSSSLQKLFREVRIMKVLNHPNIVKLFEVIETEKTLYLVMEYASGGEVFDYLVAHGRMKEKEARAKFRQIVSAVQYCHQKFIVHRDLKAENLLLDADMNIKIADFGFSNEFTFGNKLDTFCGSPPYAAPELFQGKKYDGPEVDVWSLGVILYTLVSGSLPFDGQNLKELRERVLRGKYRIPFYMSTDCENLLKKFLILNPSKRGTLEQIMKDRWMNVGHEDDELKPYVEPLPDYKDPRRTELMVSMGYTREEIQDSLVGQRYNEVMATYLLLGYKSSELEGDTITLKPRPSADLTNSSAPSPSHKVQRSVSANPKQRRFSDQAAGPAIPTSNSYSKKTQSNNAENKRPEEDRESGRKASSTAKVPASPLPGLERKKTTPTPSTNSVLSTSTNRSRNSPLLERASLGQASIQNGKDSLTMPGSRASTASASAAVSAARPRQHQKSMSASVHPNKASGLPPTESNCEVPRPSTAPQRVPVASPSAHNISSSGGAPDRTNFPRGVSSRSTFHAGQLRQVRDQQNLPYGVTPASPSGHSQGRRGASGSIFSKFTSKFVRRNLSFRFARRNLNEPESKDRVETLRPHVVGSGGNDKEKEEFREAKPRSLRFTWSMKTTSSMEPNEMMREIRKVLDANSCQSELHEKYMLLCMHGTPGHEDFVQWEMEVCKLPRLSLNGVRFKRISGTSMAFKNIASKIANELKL
Chain of Calcium/calmodulin-dependent protein kinase type II subunit alpha (Homo sapiens) (Q9UQM7 whole entry): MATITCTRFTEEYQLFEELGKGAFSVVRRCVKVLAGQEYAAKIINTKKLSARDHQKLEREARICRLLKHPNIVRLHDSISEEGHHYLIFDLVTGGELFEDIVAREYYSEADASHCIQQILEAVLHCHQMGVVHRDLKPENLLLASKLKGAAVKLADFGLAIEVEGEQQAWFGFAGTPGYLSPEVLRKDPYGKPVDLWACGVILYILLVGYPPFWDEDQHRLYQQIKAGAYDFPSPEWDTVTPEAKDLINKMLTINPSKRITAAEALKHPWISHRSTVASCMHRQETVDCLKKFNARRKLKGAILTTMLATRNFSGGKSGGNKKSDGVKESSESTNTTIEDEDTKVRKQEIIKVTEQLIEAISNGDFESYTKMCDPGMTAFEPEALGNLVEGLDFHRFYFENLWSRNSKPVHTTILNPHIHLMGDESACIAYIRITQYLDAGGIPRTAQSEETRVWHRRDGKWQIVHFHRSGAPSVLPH
Chain of Tyrosine-protein kinase Fgr (Homo sapiens) (P09769 2-529 limits assumed): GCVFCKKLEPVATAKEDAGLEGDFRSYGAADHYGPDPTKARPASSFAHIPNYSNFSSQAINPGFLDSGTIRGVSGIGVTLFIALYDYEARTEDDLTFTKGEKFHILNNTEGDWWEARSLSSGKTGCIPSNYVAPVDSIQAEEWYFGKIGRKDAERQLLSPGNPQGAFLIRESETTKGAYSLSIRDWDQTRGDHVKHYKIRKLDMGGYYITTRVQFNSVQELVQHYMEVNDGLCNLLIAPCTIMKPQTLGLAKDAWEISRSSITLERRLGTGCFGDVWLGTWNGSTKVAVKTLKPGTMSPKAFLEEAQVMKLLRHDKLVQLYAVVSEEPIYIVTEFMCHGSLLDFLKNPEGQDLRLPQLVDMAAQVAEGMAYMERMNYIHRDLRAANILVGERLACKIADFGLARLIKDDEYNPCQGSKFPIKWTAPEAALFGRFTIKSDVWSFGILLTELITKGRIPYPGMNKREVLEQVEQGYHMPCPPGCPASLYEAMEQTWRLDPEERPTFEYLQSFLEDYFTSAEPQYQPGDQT
Chain of Insulin receptor (Homo sapiens) (P06213 28-758 limits assumed): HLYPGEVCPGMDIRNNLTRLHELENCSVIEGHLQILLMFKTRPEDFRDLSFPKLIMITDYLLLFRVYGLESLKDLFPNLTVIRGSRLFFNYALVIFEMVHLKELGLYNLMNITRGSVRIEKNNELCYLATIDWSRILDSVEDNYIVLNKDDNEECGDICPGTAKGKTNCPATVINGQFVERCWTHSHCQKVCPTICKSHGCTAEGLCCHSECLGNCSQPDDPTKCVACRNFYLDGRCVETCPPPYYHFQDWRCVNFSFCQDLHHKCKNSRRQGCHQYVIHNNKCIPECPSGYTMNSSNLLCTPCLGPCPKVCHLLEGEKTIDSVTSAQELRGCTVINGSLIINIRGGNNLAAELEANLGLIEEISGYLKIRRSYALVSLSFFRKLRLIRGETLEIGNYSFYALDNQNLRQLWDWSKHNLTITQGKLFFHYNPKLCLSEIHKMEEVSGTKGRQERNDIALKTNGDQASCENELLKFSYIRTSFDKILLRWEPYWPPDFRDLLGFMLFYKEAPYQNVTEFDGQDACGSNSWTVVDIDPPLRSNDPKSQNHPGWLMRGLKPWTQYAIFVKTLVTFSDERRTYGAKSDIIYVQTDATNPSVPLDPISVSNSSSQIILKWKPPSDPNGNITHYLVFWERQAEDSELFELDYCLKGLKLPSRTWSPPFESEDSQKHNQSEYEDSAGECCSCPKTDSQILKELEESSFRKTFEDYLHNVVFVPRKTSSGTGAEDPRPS
Chain of Insulin receptor (Homo sapiens) (P06213 763-1382 limits assumed): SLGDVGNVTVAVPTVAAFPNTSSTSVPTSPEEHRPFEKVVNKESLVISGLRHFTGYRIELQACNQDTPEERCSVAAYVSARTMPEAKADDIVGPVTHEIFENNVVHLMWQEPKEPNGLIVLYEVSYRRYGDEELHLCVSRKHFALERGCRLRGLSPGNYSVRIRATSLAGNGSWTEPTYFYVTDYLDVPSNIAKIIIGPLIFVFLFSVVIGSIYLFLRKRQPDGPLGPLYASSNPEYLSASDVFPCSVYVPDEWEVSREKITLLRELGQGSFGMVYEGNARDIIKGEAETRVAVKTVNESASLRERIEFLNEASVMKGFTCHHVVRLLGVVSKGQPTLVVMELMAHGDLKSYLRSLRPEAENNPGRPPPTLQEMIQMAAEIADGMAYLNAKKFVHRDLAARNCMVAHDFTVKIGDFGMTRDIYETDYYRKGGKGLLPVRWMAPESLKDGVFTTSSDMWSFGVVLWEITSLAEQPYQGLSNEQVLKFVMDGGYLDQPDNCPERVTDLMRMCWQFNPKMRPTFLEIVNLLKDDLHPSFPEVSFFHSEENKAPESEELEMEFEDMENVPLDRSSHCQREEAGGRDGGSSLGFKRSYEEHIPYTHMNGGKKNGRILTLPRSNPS

Turning to `Oc1n[nH]c2nnc(-c3c(-c4ccccc4)nn4ccccc34)cc12`, the inhibition (usually the relative decrease from the control value, in per cent) is -5.26% in assay [1]; 2.27% in assay [2]; 0.95% in [3]; -0.49% in [4]; -1.47% in [5]; -1.82% in assay [6]. Also, the inhibition was -4.11% in assay [7]; -5.1% in assay [8]; -0.83% in assay [9]; -4.33% in assay [10]; 2.55% in [11]. Besides, the inhibition entry in [12] was “inactive”.

As to `Nc1n[nH]c2nnc(-c3c(-c4ccccc4)nn4ccccc34)cc12`, the inhibition in [1] was -2.07%; in assay [2] it was -1.27%; in [3], -0.55%; in assay [4], 7.1%; in assay [5] it was -0.84%; in assay [6] it was 1.81%. Also, the inhibition was -4.05% in [7]; -1.32% in [8]; -2.21% in assay [9]; -3.94% in assay [10]; 11.2% in assay [11]. For the same compound, the inhibition result in assay [12] is “inactive”.
